# Values joined by “and” are separate entries in the source; they are usually repeats but may differ in a detail not shown here. Equal entries are not always repeated.
# What was measured:
# [1] = for log P [b]: pH 2.7; for log P [c]: pH 7.8; for log P [a]: pH 2.3
# Sphaerotheca fuliginea [2] = assay: Example E: Sphaerotheca test (cucumber)/protective, comparison with EP-A 395 175; assay type: in vivo; settings: application rate 100 ppm, cucumber plants, protective, evaluation 7 days after inoculation
# Pyrenophora teres [3] = assay: Example C: Pyrenophora teres test (barley)/protective; assay type: in vivo; settings: 500 ppm, protective, evaluation 7-9 days after inoculation
# Sphaerotheca fuliginea [4] = assay: Example A: Sphaerotheca test (cucumber)/protective; assay type: in vivo; settings: 500 ppm, cucumber plants, protective, evaluation 7 days after inoculation
# Pyrenophora teres [5] = assay: Example F: Pyrenophora teres test (barley)/protective, comparison with EP-A 409 418; assay type: in vivo; settings: application rate 500 ppm, protective, evaluation 7-9 days after inoculation
# Pyricularia oryzae = assay type: in vivo; settings: application rate 1000 ppm, rice plants, protective, evaluation 6 days after inoculation
# Uromyces appendiculatus = assay: Example H: Uromyces test (beans)/protective; assay type: in vivo; settings: application rate 10 ppm, protective, evaluation 10 days after inoculation
# Protocol: To test for protective activity, young plants are sprayed with the preparation of active compound at the stated application rate. After the spray coating has dried on, the plants are inoculated with an aqueous spore suspension of bean rust (Uromyces appendiculatus) and then remain in an incubation cabin at 100% relative atmospheric humidity and 20° C. for one day. The plants are then placed in a greenhouse at 90% relative atmospheric humidity and a temperature of about 21° C. […]
# Alternaria solani = assay: Example B: Alternaria test (tomato)/protective; assay type: in vivo; settings: 500 ppm, tomato plants, protective, evaluation 7 days after inoculation
# [6] = logP by HPLC on reversed-phase columns (EEC directive 79/831 Annex V.A8)
smiles,measurement,setting,value
"OC(c1cnc(Cl)s1)(c1ccc(F)cc1F)C1(Oc2ccc(F)cc2F)CC1 (stereo not drawn) [Compound 12, (2-chloro-1,3-thiazol-5-yl)[1-(2,4-difluorophenoxy)cyclopropyl](2,4-difluorophenyl)methanol]",chromatographic logP,physchem; pH 2.7,4.29
same,chromatographic logP,physchem; pH 7.8,4.23
OC(c1ccc(Br)cc1)(c1cnco1)C1(Oc2ccc(F)cc2F)CC1 (stereo not drawn) [Compound 6],log P [b],[1],3.59
same,log P [c],[1],3.56
CC(C)(C)C(O)(CCc1ccc(Cl)cc1)Cc1cncs1 (stereo not drawn),Efficacy in %,Sphaerotheca fuliginea [2],8%
COc1ccc(OC(C)(C)C(O)(c2cncs2)C(C)(C)C)cc1 (stereo not drawn) [Compound 13],Efficacy (%),Pyrenophora teres [3],75%
same,log P [b],[1],3.49^[b]
"CC(C)(Cc1ccc(Cl)cc1)C(C)(O)c1cncs1 (stereo not drawn) [Compound 22, 4-(4-chlorophenyl)-3,3-dimethyl-2-(1,3-thiazol-5-yl)butan-2-ol]",Efficacy (%),Sphaerotheca fuliginea [4],75%
same,Efficacy (%),Pyrenophora teres [3],70% and 90%
same,Efficacy in %,Pyrenophora teres [5],70%
same,Efficacy in %,Pyricularia oryzae,78%
same,Efficacy in %,Uromyces appendiculatus,80%
same,chromatographic logP,physchem; pH 2.7,3.11
CC(C)(C)C(O)(c1cncs1)C(C)(C)Oc1ccc(I)cc1F (stereo not drawn) [Compound 14],log P [b],[1],4.7^[b]
CC(C)(C)C(O)(CCc1ccc(Cl)cc1)c1cncs1 (stereo not drawn) [drawing 38],Efficacy in %,Pyricularia oryzae,22%
OC(c1cnco1)(c1ccc(F)cc1F)C1(Oc2ccc(F)cc2F)CC1 (stereo not drawn) [Compound 4],log P [b],[1],3.07
same,log P [c],[1],3.1
CC(C)(Cc1ccc(I)cc1)C(C)(O)c1cncs1 (stereo not drawn) [Compound 20],Efficacy (%),Alternaria solani,90%
same,log P [b],[1],3.45^[b]
CC(c1ccc(F)cc1Cl)C(O)(c1cncs1)C(C)(CF)CF (stereo not drawn) [Compound 25],Efficacy (%),Sphaerotheca fuliginea [4],93%
same,log P [b],[1],3.46^[b]
CC(c1ccc(F)cc1Cl)C(O)(c1cnc(Cl)s1)C(C)(CF)CF (stereo not drawn) [Compound 26],log P [a],[1],4.51^[a]
OC(c1ccc(Br)cc1)(c1cnco1)C1(Oc2ccccc2)CC1 (stereo not drawn) [Compound 5],log P [b],[1],3.51
same,log P [c],[1],3.48
"OC(c1ccc(Cl)cc1)(c1cnco1)C1(Oc2ccccc2)CC1 (stereo not drawn) [Compound 8, (4-chlorophenyl)(1,3-oxazol-5-yl)(1-phenoxycyclopropyl)methanol]",chromatographic logP,physchem; pH 2.7,3.37
same,chromatographic logP,physchem; pH 7.8,3.43
CC(C)(C)C(O)(COc1ccc(Cl)cc1)Cc1cncs1 (stereo not drawn),Efficacy in %,Sphaerotheca fuliginea [2],5%
"OC(Cc1cncs1)(c1ccc(Cl)cc1)C1(Oc2ccc(F)cc2)CC1 (stereo not drawn) [Compound 2, 1-(4-chlorophenyl)-1-[1-(4-fluorophenoxy)cyclopropyl]-2-(1,3-thiazol-5-yl)ethanol]",Efficacy (%),Sphaerotheca fuliginea [4],100%
same,Efficacy in %,Sphaerotheca fuliginea [2],93%
same,chromatographic logP,physchem; pH 2.7,3.62
same,chromatographic logP,physchem; pH 7.8,3.65
"CC(C)(C)C(O)(c1cncs1)C(C)(C)Oc1ccc(Cl)cc1 (stereo not drawn) [Compound 16, 2-(4-chlorophenoxy)-2,4,4-trimethyl-3-(1,3-thiazol-5-yl)pentan-3-ol]",Efficacy (%),Sphaerotheca fuliginea [4],100%
same,chromatographic logP,physchem; pH 2.7,4.13
"CC(C)[Si](c1ncc(C(O)(c2ccc(Cl)cc2)C2(Oc3ccccc3)CC2)o1)(C(C)C)C(C)C (stereo not drawn) [Compound 9, (4-chlorophenyl)(1-phenoxycyclopropyl)[2-(triisopropylsilyl)-1,3-oxazol-5-yl]methanol]",chromatographic logP,[6]; pH 2.7,7.36
same,chromatographic logP,[6]; pH 7.8,7.36
CC(C)(Cc1ccc(F)cc1Cl)C(C)(O)c1cncs1 (stereo not drawn) [Compound 19],log P [b],[1],3.14^[b]
CC(C)(Cc1ccc(C(F)(F)F)cc1)C(C)(O)c1cncs1 (stereo not drawn) [Compound 21],Efficacy (%),Pyrenophora teres [3],70%
same,log P [b],[1],3.34^[b]
CC(C)(Cc1ccc(OC(F)(F)F)cc1)C(C)(O)c1cncs1 (stereo not drawn) [Compound 17],Efficacy (%),Alternaria solani,90%
OC(c1ccc(Br)cc1)(c1cnco1)C1(Oc2ccc(F)cc2)CC1 (stereo not drawn) [Compound 7],log P [b],[1],3.54
same,log P [c],[1],3.52
"CC(C)(C)C(O)(CCc1ccc(Cl)cc1)c1cncs1 (stereo not drawn) [drawing 36, reference compound]",Efficacy in %,Pyrenophora teres [5],0%
"CC(C)(C)C(O)(CCc1ccc(Cl)cc1)c1cncs1 (stereo not drawn) [drawing 41, reference compound]",Efficacy in %,Uromyces appendiculatus,0%
"OC(c1cncs1)(c1ccc(F)cc1F)C1(Oc2ccc(F)cc2F)CC1 (stereo not drawn) [Compound 11, [1-(2,4-difluorophenoxy)cyclopropyl](2,4-difluorophenyl)1,3-thiazol-5-ylmethanol]",Efficacy (%),Sphaerotheca fuliginea [4],95%
same,chromatographic logP,physchem; pH 2.7,3.35
same,chromatographic logP,physchem; pH 7.8,3.3
CC(c1ccc(Cl)cc1Cl)C(O)(c1cncs1)C(C)(C)C (stereo not drawn) [Compound 23],Efficacy (%),Sphaerotheca fuliginea [4],70%
same,log P [a],[1],4.4[a]
CC(C)(C)C(O)(COc1ccc(Cl)cc1)c1cncs1 (stereo not drawn),Efficacy in %,Pyricularia oryzae,33%
"OC(Cc1cnc(Cl)s1)(c1ccc(Cl)cc1)C1(Oc2ccc(F)cc2)CC1 (stereo not drawn) [Compound 3, 1-(4-chlorophenyl)-2-(2-chloro-1,3-thiazol-5-yl)-1-[1-(4-fluorophenoxy)cyclopropyl]ethanol]",chromatographic logP,physchem; pH 2.7,4.55
same,chromatographic logP,physchem; pH 7.8,4.53
CC(C)(Cc1ccc(Br)cc1)C(C)(O)c1cncs1 (stereo not drawn) [Compound 18],log P [b],[1],3.22^[b]
CC(C)(C)C(O)(c1cncs1)C(C)(C)Oc1ccc(Br)cc1 (stereo not drawn) [Compound 15],Efficacy (%),Sphaerotheca fuliginea [4],99%
same,log P [b],[1],4.27^[b]

# — patent US9198429B2, “Heterocyclic alkanol-derivatives” (BAYER INTELLECTUAL PROPERTY GMBH, priority 2011, dated 2015)
